Reference: patent publication US20220251124A1, “3,5-BIS(PHENYL)-1H-HETEROARYL DERIVATIVES AS MEDICAMENTS” (INSTITUTE OF BIOTECHNOLOGY CAS, V.V.I., priority 2019, published 2022)

Legend:
[1] = tested on: MDA-MB-231; assay: cellular ROS, DCF-DA probe, flow cytometry; type: cell-based; settings: 5 μM
Method: (§1) The effect of compound 1 on generation of cellular reactive oxygen species (ROS) was evaluated in MCF7 and MDA-MB-231 cells using a cell permeable ROS probe 2′,7′-dichlorodihydrofluorescein diacetate (DCF-DA; Sigma-Aldrich) that measures several reactive species and becomes fluorescent upon oxidation. Cells treated with compound 1 or compound 2 (5 μM) for the described time interval were stained with the probe and then analyzed via Flow cytometry.

[2] = tested on: MCF7; assay: cellular ROS, DCF-DA probe, flow cytometry; type: cell-based; settings: 5 μM
Method: as §1

[3] = tested on: MCF7 mammospheres (cancer stem-like cells); assay: formation and growth of mammospheres, Cell Titer Glo 3D; type: cell-based; settings: 1 μM, 140 hrs
Method: To test the effect of compound 1 on the viability and proliferation of other resistant cancer cell types, we utilized a model of cancer stem-like cells that can be cultivated in vitro, so-called “mammospheres”. […] In this assay MCF7 spheres were dissociated to single cells/small spheres, seeded 10,000 cells per well on a special cell culture plastic that is non adherent in the Mammocult medium (Stem cell technologies) and compound 1 and compound 2 at 1 μM were added. This represents the non-cytotoxic concentration. Cells were left to grow and generate spheres for 140 hrs. The amount of cells was then measured by the Cell TiterGlo 3D reagent (Promega) that determines cell counts of 3D cultured cells as a function of their ATP content that is determined by a chemiluminescent assay.

[4] = tested on: MCF7 cells; assay: oxygen consumption rate (OCR), Seahorse XFe96; type: cell-based; settings: for Oxygen consumption rate, Basal / Oxygen consumption rate, Maximal / Oxygen consumption rate, Proton-leak: MCF7
Method: For Seahorse analysis, 20.000 cells were seeded in 96 well plates and added immediately before measurement (addition, Table 6) or incubated with compound 1 for 1 hour (preincubation, Table 7). Afterwards, oxygen consumption rate (OCR) was measured in three cycles of 3 minutes preceded by 3 minutes of mixing, using a Seahorse XFe96 analyzer (Agilent). Results express the mean values of the three cycles.

[5] = tested on: cancer cell lines; assay: crystal violet assay, cancer cell lines overall; type: cell-based; settings: as seen in previous tables
Method: Compound 1 and a comparative compound deferasirox (DFX) were tested in their efficacy to kill/suppress proliferation of malignant breast cancer MCF7 cells representing estrogen-dependent type of breast cancer. Briefly, 10.000 cells per well were seeded in a 96-well plate on one day and the next day the tested compounds were added and incubated with the cells for 48 hrs. The cells were then fixed with 4% paraformaldehyde, stained with 0.05% crystal violet, washed with PBS, and solubilized in 1% SDS. The absorbance of the plate at 595 nm was then measured, quantifying the number of viable cells.

[6] = tested on: triple negative breast cancer cells (MDA-MB-231) xenograft; assay: tumor growth in xenograft model; type: in vivo, NOD/SCID gamma mice; settings: for relative tumor size compared to day 0: 2/week
Method: The effect of compound 1 on tumor growth in vivo was assessed in a xenograft model of triple negative breast cancer cells (MDA-MB-231) injected into NOD/SCID gamma mice. 1×10^6 cells were injected subcutaneously into each mouse. When the tumors were approximately 10 mm^3 in volume, the animals were randomly divided in two groups and injected intra-peritoneally with either compound 1 (2 mg/kg in corn oil) or vehicle (2.5% DMSO in corn oil), twice per week for 21 days. Tumor size was determined by ultrasound using a Vevo 3100 Preclinical Imaging System (VisualSonics).

O=C(NCCCCCCCCCC[P+](c1ccccc1)(c1ccccc1)c1ccccc1)c1ccc(-n2nc(-c3ccccc3O)nc2-c2ccccc2O)cc1 [Compound 1, (10-(4-(3,5-bis(2-hydroxyphenyl)-1H-1,2,4-triazol-1-yl)benzamido)decyl) triphenylphosphonium Chloride]
DCF-DA mean fluorescence ([1]; 5 min, MDA-MB-231 (0 min = 100)): 129.9 (17.4) | DCF-DA mean fluorescence ([1]; 10 min, MDA-MB-231): 207.8 (94.2) | DCF-DA mean fluorescence ([1]; 15 min, MDA-MB-231): 258.3 (71.2) | DCF-DA mean fluorescence ([1]; 30 min, MDA-MB-231): 437.5 (105.9) | DCF-DA mean fluorescence ([1]; 60 min, MDA-MB-231): 529.5 (176.1) | DCF-DA mean fluorescence ([2]; 5 min, MCF7 (0 min = 100)): 161.3 (29.8) | DCF-DA mean fluorescence ([2]; 10 min, MCF7): 172.0 (18.9) | DCF-DA mean fluorescence ([2]; 15 min, MCF7): 283.8 (36.6) | DCF-DA mean fluorescence ([2]; 30 min, MCF7): 857.2 (299.0) | DCF-DA mean fluorescence ([2]; 60 min, MCF7): 1435.0 (452.9) | chemiluminescence ATP values normalized to control sample set as 100 [3]: 6.61 (1.91) | Oxygen consumption rate, Basal ([4]; 5 μM, 1 h preincubation): 39.9 (5.8) pmol*min^−1 10.000 cells^−1 | Oxygen consumption rate, Maximal ([4]; 5 μM, 1 h preincubation): 20.7 (4.5) pmol*min^−1 10.000 cells^−1 | Oxygen consumption rate, Proton-leak ([4]; 5 μM, 1 h preincubation): 33.1 (4.7) pmol*min^−1 10.000 cells^−1 | Oxygen consumption rate, Basal ([4]; 5 μM, immediate addition): 52.4 (9.2) pmol*min^−1 10.000 cells^−1 | Oxygen consumption rate, Maximal ([4]; 5 μM, immediate addition): 29.7 (5.8) pmol*min^−1 10.000 cells^−1 | Oxygen consumption rate, Proton-leak ([4]; 5 μM, immediate addition): 43.5 (7.6) pmol*min^−1 10.000 cells^−1 | Oxygen consumption rate, Basal ([4]; 10 μM, 1 h preincubation): 30.9 (3.1) pmol*min^−1 10.000 cells^−1 | Oxygen consumption rate, Maximal ([4]; 10 μM, 1 h preincubation): 17.4 (3.8) pmol*min^−1 10.000 cells^−1 | Oxygen consumption rate, Proton-leak ([4]; 10 μM, 1 h preincubation): 25.9 (3.1) pmol*min^−1 10.000 cells^−1 | Oxygen consumption rate, Basal ([4]; 10 μM, immediate addition): 49.6 (9.6) pmol*min^−1 10.000 cells^−1 | Oxygen consumption rate, Maximal ([4]; 10 μM, immediate addition): 26.3 (5.4) pmol*min^−1 10.000 cells^−1 | Oxygen consumption rate, Proton-leak ([4]; 10 μM, immediate addition): 37.3 (6.1) pmol*min^−1 10.000 cells^−1 | effect on cellular respiration ([4]; OCR, Seahorse): marked inhibition of cellular respiration | efficacy against cancer cell lines [5]: 10 to 100 nM | effect on tumor growth ([6]; 2 mg/kg intra-peritoneally, twice per week for 21 days): significantly slows down the tumor growth | relative tumor size compared to day 0 ([6]; day 4, 2 mg/kg intra-peritoneally): 1.18 (0.3) | relative tumor size compared to day 0 ([6]; day 7, 2 mg/kg intra-peritoneally): 2.04 (0.3) | relative tumor size compared to day 0 ([6]; day 10, 2 mg/kg intra-peritoneally): 3.00 (0.4) | relative tumor size compared to day 0 ([6]; day 14, 2 mg/kg intra-peritoneally): 4.90 (0.8) | relative tumor size compared to day 0 ([6]; day 17, 2 mg/kg intra-peritoneally): 4.44 (0.3) | relative tumor size compared to day 0 ([6]; day 21, 2 mg/kg intra-peritoneally): 5.12 (0.6)
